Assay [1] deals with A431 cells [human epidermoid carcinoma, overexpressing HER1 (EGFR, ErbB1)]. The assay can be described thus: In vitro tumor cell proliferation assay (Cell Titer-Glo luminescent cell viability), A431 cells. The conditions noted are these: A-431, 72 h, 72 hours of drug exposure, Cell Titer-Glo readout, read-out: IC50, anti-proliferative activity in A431 cells. The class given is cell-based.

Assay [2] has as its system BT474 [human breast carcinoma, overexpressing HER2 (ErbB2)]. The assay is described as follows: In vitro tumor cell proliferation assay (Cell Titer-Glo luminescent cell viability), BT474 cells. Type of assay: cell-based. Particulars: BT-474, 72 h, 72 hours of drug exposure, Cell Titer-Glo readout, read-out: IC50, anti-proliferative activity in BT474 cells.

Structures can show the parent of a compound that is named as a salt.

Take `O=C(Cc1ccc2c(c1)sc1ncnc(Nc3ccc(OCc4ccccn4)c(Cl)c3)c12)NCCN1CCOCC1` [Example 97, 2-(4-{[3-chloro-4-(pyridin-2-ylmethoxy)phenyl]amino}[1]benzothieno[2,3-d]pyrimidin-7-yl)-N-(2-morpholin-4-ylethyl) acetamide]: the IC50 in assay [1] is no more than 50 µM; in assay [2] it was no more than 0.5 µM.

In the case of `CN(C)[C@H]1CCN(C(=O)CCc2ccc3c(c2)sc2ncnc(Nc4ccc(OCc5cccc(F)c5)c(Cl)c4)c23)C1` [Example 68, N-{3-chloro-4-[(3-fluorobenzyl)oxy]phenyl}-7-{3-[(3S)-3-(dimethylamino)pyrrolidin-1-yl]-3-oxopropyl} [1]benzothieno[2,3-d]pyrimidin-4-amine], the half-inhibitory concentration (IC50) in assay [1] and in assay [2] was no more than 5 µM each time.

Turning to `Clc1cc(Nc2ncnc3sc4cc(CCN5CCOCC5)ccc4c23)ccc1OCc1ccccn1` [Example 84, N-[3-chloro-4-(pyridin-2-ylmethoxy)phenyl]-7-(2-morpholin-4-ylethyl)[1]benzothieno[2,3-d] pyrimidin-4-amine], the half-inhibitory concentration (IC50) in assay [1] is no more than 50 µM; in assay [2], no more than 0.5 µM.

With `Fc1cccc(Cn2ncc3cc(Nc4ncnc5sc6cc(Br)ccc6c45)ccc32)c1` [Example 113, 7-bromo-N-[1-(3-fluorobenzyl)-1H-indazol-5-yl][1]benzothieno [2,3-d]pyrimidin-4-amine], the half-inhibitory concentration (IC50) in assay [1] was no more than 50 µM; in assay [2] it was no more than 5 µM.

Take `OCCN(CCO)CCc1ccc2c(c1)sc1ncnc(Nc3ccc(OCc4cccc(F)c4)c(Cl)c3)c12` [Example 8, 2,2'-({2-[4-({3-chloro-4-[(3-fluorobenzyl)oxy]phenyl}amino)[1]benzothieno[2,3-d]pyrimidin-7-yl]ethyl}imino)diethanol]: the IC50 in assay [1] is no more than 5 µM; in assay [2], no more than 0.5 µM.

Take `O=S1(=O)CCN(CCc2ccc3c(c2)sc2ncnc(Nc4ccc(OCc5cccc(F)c5)c(Cl)c4)c23)CC1` [Example 18, N-{3-chloro-4-[(3-fluorobenzyl)oxy]phenyl}-7-[2-(1,1-dioxidothiomorpholin-4-yl)ethyl][1]benzothieno[2,3-d] pyrimidin-4-amine]: the results for the IC50 in assay [1] and in assay [2] were no more than 50 µM and no more than 0.5 µM, respectively.

As to `CCOC(=O)C(C(=O)OCC)c1ccc2c(c1)sc1ncnc(Nc3ccc(OCc4cccc(F)c4)c(Cl)c3)c12` [Example 45, 2-{4-[3-Chloro-4-(3-fluoro-benzyloxy)-phenylamino]-benzo[4,5]thieno[2,3-d]pyrimidin-7-yl}-malonic acid diethyl ester], the IC50 in assay [1] is no more than 50 µM; in assay [2] it was no more than 5 µM.

With `CCOC(=O)Cc1ccc2c(c1)sc1ncnc(Nc3ccc(OCc4cccc(F)c4)c(Cl)c3)c12` [Example 1, ethyl[4-({3-chloro-4-[(3-fluorobenzyl)oxy]phenyl}amino)[1]benzothieno[2,3-d]pyrimidin-7-yl]acetate], the half-maximal inhibitory concentration (IC50) was no more than 50 µM in assay [1] and no more than 5 µM in assay [2].

For the compound `O=C(Cc1ccc2c(c1)sc1ncnc(Nc3ccc(OCc4cccc(F)c4)c(Cl)c3)c12)NCCN1CCOCC1` [Example 30, 2-[4-({3-chloro-4-[(3-fluorobenzyl)oxy]phenyl}amino)[1]benzothieno[2,3-d]pyrimidin-7-yl]-N-(2-morpholin-4-ylethyl)acetamide], the 50% inhibitory concentration (IC50) in assay [1] is no more than 5 µM; in assay [2], no more than 0.5 µM.

Turning to `CN(C)[C@H]1CCN(C(=O)/C=C/c2ccc3c(c2)sc2ncnc(Nc4ccc(OCc5cccc(F)c5)c(Cl)c4)c23)C1` [Example 52, N-{3-chloro-4-[(3-fluorobenzyl)oxy]phenyl}-7-{(1E)-3-[(3S)-3-(dimethylamino)pyrrolidin-1-yl]-3-oxoprop-1-en-1-yl}[1]benzothieno[2,3-d] pyrimidin-4-amine], the half-inhibitory concentration (IC50) in assay [1] and in assay [2] was no more than 5 µM each time.

Regarding `COCCNCCc1ccc2c(c1)sc1ncnc(Nc3ccc(OCc4cccc(F)c4)c(Cl)c3)c12` [Example 9, N-{3-chloro-4-[(3-fluorobenzyl)oxy]phenyl}-7-{2-[(2-methoxyethyl)amino]ethyl}[1] benzothieno[2,3-d]pyrimidin-4-amine], the IC50 in assay [1] is no more than 5 µM; in assay [2] it was no more than 0.5 µM.

As for `OCCc1ccc2c(c1)sc1ncnc(Nc3ccc(OCc4cccc(F)c4)c(Cl)c3)c12` [Example 2, 2-[4-({3-chloro-4-[(3-fluorobenzyl)oxy]phenyl}amino)[1]benzothieno[2,3-d]pyrimidin-7-yl]ethanol], the IC50 in assay [1] and in assay [2] was no more than 5 µM in each case.

In the case of `OCCNCCc1ccc2c(c1)sc1ncnc(Nc3ccc(OCc4ccccn4)c(Cl)c3)c12` [Example 88, 2-{[2-(4-{[3-chloro-4-(pyridin-2-ylmethoxy)phenyl]amino}[1]benzothieno[2,3-d]pyrimidin-7-yl)ethyl]amino}ethanol trifluoroacetate (salt)], the IC50 is no more than 50 µM in assay [1] and no more than 0.5 µM in assay [2].

For the compound `CCOC(=O)C(C(=O)OCC)c1ccc2c(c1)sc1ncnc(Nc3ccc4c(cnn4Cc4cccc(F)c4)c3)c12` [Example 118, diethyl (4-{[1-(3-fluorobenzyl)-1H-indazol-5-yl]amino}[1]benzothieno [2,3-d]pyrimidin-7-yl)malonate], the results for the IC50 in assay [1] and in assay [2] were no more than 50 µM and no more than 5 µM, respectively.

In the case of `Clc1cc(Nc2ncnc3sc4cc(CCN5CCCC5)ccc4c23)ccc1OCc1ccccn1` [Example 87, N-[3-chloro-4-(pyridin-2-ylmethoxy)phenyl]-7-(2-pyrrolidin-1-ylethyl)[1]benzothieno[2,3-d] pyrimidin-4-amine trifluoroacetate], the half-maximal inhibitory concentration (IC50) was no more than 50 µM in assay [1] and no more than 5 µM in assay [2].

Consider `C=Cc1ccc2c(c1)sc1ncnc(Nc3ccc(OCc4cccc(F)c4)c(Cl)c3)c12` [Example 14, N-{3-chloro-4-[(3-fluorobenzyl)oxy]phenyl}-7-vinyl[1]benzothieno[2,3-d]pyrimidin-4-amine], for which the IC50 in assay [1] was no more than 50 µM; in assay [2] it was no more than 0.5 µM.

Consider `Fc1cccc(COc2ccc(Nc3ncnc4sc5cc(Br)ccc5c34)cc2Cl)c1` [Example 13, 7-bromo-N-{3-chloro-4-[(3-fluorobenzyl)oxy]phenyl}[1]benzothieno[2,3-d]pyrimidin-4-amine], for which the 50% inhibitory concentration (IC50) in assay [1] is no more than 50 µM; in assay [2], no more than 5 µM.

As for `O=C(O)/C=C/c1ccc2c(c1)sc1ncnc(Nc3ccc(OCc4cccc(F)c4)c(Cl)c3)c12` [Example 48, (2E)-3-[4-({3-chloro-4-[(3-fluorobenzyl)oxy]phenyl}amino)[1]benzothieno[2,3-d]pyrimidin-7-yl]acrylic acid], the IC50 in assay [1] was no more than 50 µM; in assay [2], no more than 5 µM.

Take `Fc1cccc(COc2ccc(Nc3ncnc4sc5cc(OCCN6CCOCC6)ccc5c34)cc2Cl)c1` [Example 38, N-{3-chloro-4-[(3-fluorobenzyl)oxy]phenyl}-7-(2-morpholin-4-ylethoxy) [1]benzothieno[2,3-d]pyrimidin-4-amine]: the results for the IC50 in assay [1] and in assay [2] were no more than 5 µM and no more than 0.5 µM, respectively.

Consider `CCN1CCN(C(=O)[C@@H](O)[C@H](O)c2ccc3c(c2)sc2ncnc(Nc4ccc(OCc5cccc(F)c5)c(Cl)c4)c23)CC1` [Example 58, (1R,2S)-1-[4-({3-chloro-4-[(3-fluorobenzyl)oxy]phenyl}amino)[1]benzothieno[2,3-d]pyrimidin-7-yl]-3-(4-ethylpiperazin-1-yl)-3-oxopropane-1,2-diol], for which the IC50 in assay [1] was no more than 50 µM; in assay [2], no more than 5 µM.

For `OC[C@@H](O)[C@H](O)c1ccc2c(c1)sc1ncnc(Nc3ccc(OCc4cccc(F)c4)c(Cl)c3)c12` [Example 64, (1R,2R)-1-[4-({3-chloro-4-[(3-fluorobenzyl)oxy]phenyl}amino)[1]benzothieno[2,3-d]pyrimidin-7-yl]propane-1,2,3-triol], the IC50 is no more than 5 µM in assay [1] and no more than 0.5 µM in assay [2].

Regarding `O=C(Cc1ccc2c(c1)sc1ncnc(Nc3ccc(OCc4ccccn4)c(Cl)c3)c12)NCCO` [Example 106, 2(4-{[3-chloro-4-(pyridin-2-ylmethoxy)phenyl]amino}[1]benzothieno[2,3-d]pyrimidin-7-yl)-N-(2-hydroxyethyl)acetamide], the IC50 was no more than 50 µM in assay [1] and no more than 5 µM in assay [2].

`COCCNCCc1ccc2c(c1)sc1ncnc(Nc3ccc(OCc4ccccn4)c(Cl)c3)c12` [Example 86, N-[3-chloro-4-(pyridin-2-ylmethoxy)phenyl]-7-{2-[(2-methoxyethyl)amino]ethyl}[1] benzothieno[2,3-d]pyrimidin-4-amine trifluoroacetate]: the IC50 in assay [1] is no more than 5 µM; in assay [2] it was no more than 0.5 µM.

Turning to `O=C(Cc1ccc2c(c1)sc1ncnc(Nc3ccc(OCc4cscn4)c(Cl)c3)c12)NN1CCOCC1` [Example 144, 2-(4-{[3-chloro-4-(1,3-thiazol-4-ylmethoxy)phenyl]amino}[1]benzothieno[2,3-d]pyrimidin-7-yl)-N-morpholin-4-ylacetamide], the 50% inhibitory concentration (IC50) in assay [1] was no more than 50 µM; in assay [2], no more than 5 µM.

In the case of `OC[C@H](O)c1ccc2c(c1)sc1ncnc(Nc3ccc4c(cnn4Cc4cccc(F)c4)c3)c12` [Example 117, (1R)-1-(4-{[1-(3-fluorobenzyl)-1H-indazol-5-yl]amino}[1]benzothieno [2,3-d]pyrimidin-7-yl)ethane-1,2-diol], the IC50 is no more than 5 µM in assay [1] and no more than 0.5 µM in assay [2].

With `CCN1CCN(C(=O)C(O)C(O)c2ccc3c(c2)sc2ncnc(Nc4ccc(OCc5cccc(F)c5)c(Cl)c4)c23)CC1` (stereo not drawn) [Example 56, 1-[4-({3-chloro-4-[(3-fluorobenzyl)oxy]phenyl}amino)[1]benzothieno[2,3-d]pyrimidin-7-yl]-3-(4-ethylpiperazin-1-yl)-3-oxopropane-1,2-diol], the IC50 is no more than 50 µM in assay [1] and no more than 5 µM in assay [2].

As to `OCCc1ccc2c(c1)sc1ncnc(Nc3ccc4c(cnn4Cc4ccccn4)c3)c12` [Example 132, 2-(4-{[1-(pyridin-2-ylmethyl)-1H-indazol-5-yl]amino}[1]benzothieno [2,3-d]pyrimidin-7-yl)ethanol], the IC50 in assay [1] was no more than 5 µM; in assay [2], no more than 0.5 µM.

Values taken from patent US7750017B2, “Heterocycles” (Bayer Schering Pharma Aktiengesellschaft, priority 2004, dated 2010).
